Data taken from patent US20030180355A1, “Combination therapy for hypertension” (priority 2001, published 2003).

Assays:
[1] = test system: uninephrectomized anesthetized rats; experiment: Model of acute angiotensin-mediated renal hypertension in anesthetized rats; assay type: in vivo, Sprague-Dawley rats
Description: Male Sprague-Dawley rats, weighing 250-300 g, were anaesthetized with pentobarbital sodium (35 mg/kg, i.p.) and placed on a thermic blanket. The temperature was maintained at 37° C. with a thermoregulator via a rectal probe. The animals were tracheotomized to facilitate spontaneous breathing. A polyethylene catheter was placed in the left jugular vein to allow for infusion of pentobarbital sodium to maintain anesthesia. The left femoral vein and artery were cannulated with polyethylene catheters to allow drugs administration and to monitor blood pressure, respectively.
The animals then underwent a left nephrectomy by excising the left kidney via a flank incision. The right kidney and renal vein, artery and ureter then were exposed via a right retroperitoneal incision, under a dissecting microscope. Silk threads were placed around both vessels and ureter. The cavity was then covered with Vaseline oil. See Recordati, et al. 2000, J. Hypertension, 18:1277-1287.
ECG (lead II) was recorded by means of subcutaneous electrodes. After 30-60 minutes of basal recordings of arterial blood pressure and heart rate the threads around the renal vessels and ureter were tied close to the renal hilum to induce complete renal ischemia of the right kidney. After 2 hours of ischemia (designed as “120” in Tables 1-4), the threads were removed to allow renal reperfusion and urine output. The reopening of the renal hilum and restoration of renal circulation, induced an increase in blood pressure that peaked 5-10 minutes and lasted about 60 minutes. Drugs (vehicle, enalapril (100 μg/kg), lercanidipine (10 μg/kg), or both lercanidipine (10 μg/kg) and enalapril (100 μg/kg)) were administered intravenously at 5 minutes after reperfusion began (defined as 125 in Tables 4-7).
Statistical analysis was performed during the reperfusion time (time 125-180 minutes). To evaluate the statistical differences among the treatment groups, data were analyzed using a three-way ANOVA (analysis of variance) with repeated measures on factor time and pre-planned multiple comparisons. Statistical analysis was performed by means of general linear model procedure (GLM) with SAS software version 6.12.

[2] = cited from earlier work
[3] = test system: conscious renal hypertensive dogs; experiment: Lercanidipine and enalapril in renal hypertensive dogs (two-kidney, two clip); assay type: in vivo, beagle dogs
Description: Male beagle dogs, 10-12 months old and weighing between 10-11 kg, were used. All dogs were trained for several weeks, to comply unstressfully to the test environment. Chronic sustained hypertension was induced in 4 dogs by bilateral renal artery constriction, according to the Goldblatt method “two-kidney, two clip hypertension”. Briefly, under sodium pentobarbital anaesthesia (35 mg/kg i.v.) during two different surgical interventions 15 days apart from each other, in sterile conditions, both renal arteries were clipped with original renal silver clips and narrowed by about 60-70%. After two months from the last intervention, an experimental renal hypertension was produced and the animals were used for the implantation of catheter.
Under sodium pentobarbital anaesthesia (35 mg/kg i.v.), in sterile conditions, the dogs were catheterized by inserting a sensor tipped catheter (Mikro-Tip) into the ascending aorta through the right femoral artery. The catheter was subcutaneously exteriorized at the back of the neck.
After a week recovery time from surgery, the animals were placed in a dog restrained unit, composed by a frame and a dog sling hammock, and connected to the pressure transducers in order to monitor the arterial blood pressure.
All the animals were alternatively treated with vehicle, lercanidipine, enalapril and the combination of lercanidipine and enalapril. The drugs were administered by oral gavage in a volume of 1 ml/kg at the following dosages:
(2) lercanidipine (0.5 mg/kg)
(4) lercanidipine […] enalapril (0.5 mg/kg +3 mg/kg)
Blood pressure (systolic and diastolic) was monitored up to 6 h after the administration. Statistical analysis was performed from time 0 to time 360 min. To evaluate the statistical differences among the treatments, data were analyzed using a three-way ANOVA with repeated measures on factor time and pre-planned multiple comparisons. Statistical analysis was performed by means of GLM (general linear model procedure) with SAS software version 6.12.

[4] = enalapril 100 μg/kg i.v., time 0 min, basal
[5] = enalapril 100 μg/kg i.v., time 120 min, end of ischemia, before drug
[6] = enalapril 100 μg/kg i.v., time 125 min, reperfusion, before drug
[7] = enalapril 100 μg/kg i.v., time 130 min, drug given at 125 min
[8] = enalapril 100 μg/kg i.v., time 135 min, drug given at 125 min
[9] = enalapril 100 μg/kg i.v., time 150 min, drug given at 125 min
[10] = enalapril 100 μg/kg i.v., time 165 min, drug given at 125 min
[11] = enalapril 100 μg/kg i.v., time 180 min, drug given at 125 min
[12] = enalapril 3 mg/kg oral, 120 min
[13] = enalapril 3 mg/kg oral, 150 min
[14] = enalapril 3 mg/kg oral, 180 min
[15] = enalapril 3 mg/kg oral, 240 min
[16] = enalapril 3 mg/kg oral, 360 min
[17] = lercanidipine 10 μg/kg i.v., time 0 min, basal
[18] = lercanidipine 10 μg/kg i.v., time 120 min, end of ischemia, before drug
[19] = lercanidipine 10 μg/kg i.v., time 125 min, reperfusion, before drug
[20] = lercanidipine 10 μg/kg i.v., time 130 min, drug given at 125 min
[21] = lercanidipine 10 μg/kg i.v., time 135 min, drug given at 125 min
[22] = lercanidipine 10 μg/kg i.v., time 150 min, drug given at 125 min
[23] = lercanidipine 10 μg/kg i.v., time 165 min, drug given at 125 min
[24] = lercanidipine 10 μg/kg i.v., time 180 min, drug given at 125 min
[25] = lercanidipine 0.5 mg/kg oral, 15 min
[26] = lercanidipine 0.5 mg/kg oral, 30 min
[27] = lercanidipine 0.5 mg/kg oral, 45 min
[28] = lercanidipine 0.5 mg/kg oral, 60 min
[29] = lercanidipine 0.5 mg/kg oral, 90 min
[30] = lercanidipine 0.5 mg/kg oral, 120 min
[31] = lercanidipine 0.5 mg/kg oral, 150 min
[32] = lercanidipine 0.5 mg/kg oral, 180 min
[33] = lercanidipine 0.5 mg/kg oral, 240 min
[34] = lercanidipine 0.5 mg/kg oral, 360 min
[35] = lercanidipine 0.5 mg/kg oral, Basal

## CCOC(=O)[C@H](CCc1ccccc1)N[C@@H](C)C(=O)N1CCC[C@H]1C(=O)O [enalapril, (S)-1-[N-1-(ethoxycarbonyl)-3-phenylpropyl]-L-alanyl-L-proline]
[1]; [4]
  DBP (diastolic blood pressure): 69.6 ± 2.1 mmHg
  MBP (mean blood pressure): 83.4 ± 2.1 mmHg
  SBP (systolic blood pressure): 111.0 ± 2.6 mmHg
[1]; [5]
  DBP (diastolic blood pressure): 65.1 ± 3.5 mmHg
  MBP (mean blood pressure): 80.0 ± 3.9 mmHg
  SBP (systolic blood pressure): 109.9 ± 5.1 mmHg
[1]; [6]
  DBP (diastolic blood pressure): 124.9 ± 4.3 mmHg
  MBP (mean blood pressure): 142.2 ± 5.4 mmHg
  SBP (systolic blood pressure): 176.8 ± 8.1 mmHg
[1]; [7]
  DBP (diastolic blood pressure): 109.9 ± 4.1 a mmHg
  MBP (mean blood pressure): 122.0 ± 4.1 b mmHg
  SBP (systolic blood pressure): 146.1 ± 4.5 c mmHg
[1]; [8]
  DBP (diastolic blood pressure): 107.1 ± 4.5 a mmHg
  MBP (mean blood pressure): 119.4 ± 4.2 b mmHg
  SBP (systolic blood pressure): 143.9 ± 4.1 b mmHg
[1]; [9]
  DBP (diastolic blood pressure): 95.9 ± 7.9 b mmHg
  MBP (mean blood pressure): 109.0 ± 7.4 c mmHg
  SBP (systolic blood pressure): 135.4 ± 6.6 b mmHg
[1]; [10]
  DBP (diastolic blood pressure): 86.5 ± 8.5 b mmHg
  MBP (mean blood pressure): 100.5 ± 8.0 b mmHg
  SBP (systolic blood pressure): 128.5 ± 7.6 a mmHg
[1]; [11]
  DBP (diastolic blood pressure): 78.9 ± 7.6 a mmHg
  MBP (mean blood pressure): 93.7 ± 7.2 a mmHg
  SBP (systolic blood pressure): 123.4 ± 6.9 mmHg
[1]; three-way ANOVA, reperfusion time 125-180 min, lercanidipine 10 μg/kg, enalapril 100 μg/kg i.v.
  p value on mean blood pressure vs lercanidipine: p < 0.001
[2]; following oral administration of enalapril
  time of peak plasma levels of enalaprilat: 3 to 4 h
[3]; enalapril 3 mg/kg oral, 15 min
  DBP (diastolic blood pressure): 114.5 ± 4.9 mmHg
  SBP (systolic blood pressure): 162.8 ± 4.8 mmHg
[3]; enalapril 3 mg/kg oral, 30 min
  DBP (diastolic blood pressure): 114.0 ± 4.7 mmHg
  SBP (systolic blood pressure): 160.3 ± 4.1 mmHg
[3]; enalapril 3 mg/kg oral, 45 min
  DBP (diastolic blood pressure): 110.3 ± 4.7 mmHg
  SBP (systolic blood pressure): 158.0 ± 5.6 mmHg
[3]; enalapril 3 mg/kg oral, 60 min
  DBP (diastolic blood pressure): 105.3 ± 5.6 a mmHg
  SBP (systolic blood pressure): 158.0 ± 6.4 mmHg
[3]; enalapril 3 mg/kg oral, 90 min
  DBP (diastolic blood pressure): 107.5 ± 3.2 mmHg
  SBP (systolic blood pressure): 159.0 ± 5.8 mmHg
[3]; [12]
  DBP (diastolic blood pressure): 105.0 ± 5.3 b mmHg
  SBP (systolic blood pressure): 153.5 ± 7.5 mmHg
[3]; [13]
  DBP (diastolic blood pressure): 108.3 ± 4.5 a mmHg
  SBP (systolic blood pressure): 158.5 ± 5.7 mmHg
[3]; [14]
  DBP (diastolic blood pressure): 110.5 ± 3.6 mmHg
  SBP (systolic blood pressure): 158.8 ± 5.5 mmHg
[3]; [15]
  DBP (diastolic blood pressure): 116.0 ± 3.3 mmHg
  SBP (systolic blood pressure): 161.3 ± 7.2 mmHg
[3]; [16]
  DBP (diastolic blood pressure): 111.8 ± 4.3 mmHg
  SBP (systolic blood pressure): 158.8 ± 5.9 mmHg
[3]; enalapril 3 mg/kg oral, Basal
  DBP (diastolic blood pressure): 120.0 ± 4.2 mmHg
  SBP (systolic blood pressure): 164.8 ± 3.5 mmHg

## COC(=O)C1=C(C)NC(C)=C(C(=O)OC(C)(C)CN(C)CCC(c2ccccc2)c2ccccc2)C1c1cccc([N+](=O)[O-])c1 (centres unmarked) [lercanidipine, methyl 1,1,N-trimethyl-N-(3,3-diphenylpropyl)-2-aminoethyl 1,4-dihydro-2,6-dimethyl-4-(3-nitrophenyl)pyridine-3,5-dicarboxylate]
[1]; [17]
  DBP (diastolic blood pressure): 69.8 ± 2.5 mmHg
  MBP (mean blood pressure): 83.3 ± 2.8 mmHg
  SBP (systolic blood pressure): 110.4 ± 3.6 mmHg
[1]; [18]
  DBP (diastolic blood pressure): 70.6 ± 5.4 mmHg
  MBP (mean blood pressure): 85.3 ± 5.7 mmHg
  SBP (systolic blood pressure): 114.5 ± 6.5 mmHg
[1]; [19]
  DBP (diastolic blood pressure): 119.3 ± 5.2 mmHg
  MBP (mean blood pressure): 135.4 ± 6.4 mmHg
  SBP (systolic blood pressure): 167.6 ± 8.9 mmHg
[1]; [20]
  DBP (diastolic blood pressure): 97.1 ± 3.1 c mmHg
  MBP (mean blood pressure): 111.5 ± 3.2 c mmHg
  SBP (systolic blood pressure): 140.4 ± 3.8 b mmHg
[1]; [21]
  DBP (diastolic blood pressure): 93.1 ± 4.0 c mmHg
  MBP (mean blood pressure): 108.9 ± 3.7 c mmHg
  SBP (systolic blood pressure): 140.5 ± 3.7 a mmHg
[1]; [22]
  DBP (diastolic blood pressure): 89.5 ± 4.3 b mmHg
  MBP (mean blood pressure): 106.1 ± 3.9 b mmHg
  SBP (systolic blood pressure): 139.4 ± 3.7 mmHg
[1]; [23]
  DBP (diastolic blood pressure): 83.5 ± 4.6 a mmHg
  MBP (mean blood pressure): 99.7 ± 4.7 mmHg
  SBP (systolic blood pressure): 132.0 ± 5.3 mmHg
[1]; [24]
  DBP (diastolic blood pressure): 78.8 ± 4.0 mmHg
  MBP (mean blood pressure): 95.2 ± 4.1 mmHg
  SBP (systolic blood pressure): 128.1 ± 4.7 mmHg
[2]; following oral dosing
  time of peak plasma levels: 2 to 3 h
[3]; [25]
  DBP (diastolic blood pressure): 107.0 ± 5.8 mmHg
  SBP (systolic blood pressure): 152.5 ± 6.6 mmHg
[3]; [26]
  DBP (diastolic blood pressure): 95.3 ± 3.6 c mmHg
  SBP (systolic blood pressure): 142.5 ± 4.8 b mmHg
[3]; [27]
  DBP (diastolic blood pressure): 89.0 ± 4.8 c mmHg
  SBP (systolic blood pressure): 138.3 ± 5.1 c mmHg
[3]; [28]
  DBP (diastolic blood pressure): 87.5 ± 6.3 c mmHg
  SBP (systolic blood pressure): 142.3 ± 7.4 a mmHg
[3]; [29]
  DBP (diastolic blood pressure): 87.3 ± 5.3 c mmHg
  SBP (systolic blood pressure): 138.3 ± 5.7 c mmHg
[3]; [30]
  DBP (diastolic blood pressure): 93.0 ± 5.6 c mmHg
  SBP (systolic blood pressure): 140.5 ± 5.9 b mmHg
[3]; [31]
  DBP (diastolic blood pressure): 94.0 ± 7.2 c mmHg
  SBP (systolic blood pressure): 139.3 ± 10.1 c mmHg
[3]; [32]
  DBP (diastolic blood pressure): 96.8 ± 5.1 c mmHg
  SBP (systolic blood pressure): 141.0 ± 7.2 b mmHg
[3]; [33]
  DBP (diastolic blood pressure): 104.0 ± 5.0 a mmHg
  SBP (systolic blood pressure): 144.8 ± 6.8 a mmHg
[3]; [34]
  DBP (diastolic blood pressure): 108.0 ± 3.5 mmHg
  SBP (systolic blood pressure): 150.0 ± 6.8 mmHg
[3]; [35]
  DBP (diastolic blood pressure): 117.5 ± 5.2 mmHg
  SBP (systolic blood pressure): 161.3 ± 3.8 mmHg
